The values below come from US8344008B2 (Janssen Pharmaceutica NV, priority 2007, dated 2013).

SMILES strings stand for the structures. pKi: −log10 of the molar value.

In general, pKi refers to −log10 of the Ki, conventionally taken in molar units.

This assay has as its target T1, recombinant human LTA4 hydrolase (rhLTA4H) (Homo sapiens, UniProt P09960).
T1 construct: made in house; host or cells: Spodoptera frugiperda (Sf-9) cells, baculovirus (pFastBac1)
T1 sequence (P09960 1-611): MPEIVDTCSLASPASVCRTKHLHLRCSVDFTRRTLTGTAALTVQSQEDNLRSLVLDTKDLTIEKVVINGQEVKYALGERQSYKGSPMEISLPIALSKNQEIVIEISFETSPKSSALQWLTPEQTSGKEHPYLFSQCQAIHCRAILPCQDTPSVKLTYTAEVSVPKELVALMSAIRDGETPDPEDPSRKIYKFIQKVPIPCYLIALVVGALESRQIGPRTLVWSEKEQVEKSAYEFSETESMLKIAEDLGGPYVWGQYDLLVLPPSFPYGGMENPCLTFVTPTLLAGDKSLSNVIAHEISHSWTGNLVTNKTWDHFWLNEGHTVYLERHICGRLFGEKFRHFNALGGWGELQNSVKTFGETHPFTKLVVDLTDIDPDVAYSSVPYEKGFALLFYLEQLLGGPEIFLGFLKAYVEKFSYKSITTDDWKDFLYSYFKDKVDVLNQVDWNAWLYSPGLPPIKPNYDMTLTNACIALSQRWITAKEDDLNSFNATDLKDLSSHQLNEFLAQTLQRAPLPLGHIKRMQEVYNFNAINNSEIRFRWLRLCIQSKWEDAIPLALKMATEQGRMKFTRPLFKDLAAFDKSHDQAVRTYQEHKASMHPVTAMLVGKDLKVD
Briefly: Recombinant Human LTA4 Hydrolase Assay for LTA4 Hydrolase Inhibitor Activity. The class given is biochemical. As to conditions: average of results obtained; LTB4 quantified by enzyme-linked immunoassay. The essentials:
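Baculovirus/Sf-9-expressed human LTA4 hydrolase (36 ng) preincubated with compound 10 min at rt in 0.1 M potassium phosphate pH 7.4, 5 mg/mL fatty-acid-free BSA. Reaction started with 9 ng LTA4 free acid, run 10 min at rt; LTB4 measured by enzyme immunoassay, IC50 from 4-parameter fit.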
Take `NC(=O)N1[C@@H]2CC[C@H]1C[C@H](NCc1ccc(Oc3nc4cccc(F)c4s3)cc1)C2` [Example 171, meso-endo-3-[4-(7-Fluoro-benzothiazol-2-yloxy)-benzylamino]-8-aza-bicyclo[3.2.1]octane-8-carboxylic acid amide]: the pKi is 6.65. As for `CC(=O)N1[C@@H]2CC[C@H]1C[C@H](NCc1ccc(Oc3nc4cc(F)ccc4s3)cc1)C2` [Example 165, meso-exo-1-{3-[4-(5-Fluoro-benzothiazol-2-yloxy)-benzylamino]-8-aza-bicyclo[3.2.1]oct-8-yl}-ethanone], the figure is 6.38; as for `NC(=O)N1CCC2CN(Cc3ccc(Oc4nc5ccccc5s4)cc3)CC2C1` (stereo not shown) [Example 143, 2-[4-(Benzothiazol-2-yloxy)-benzyl]-octahydro-pyrrolo[3,4-c]pyridine-5-carboxylic acid amide], 7.48; as for `NC(=O)N1CC2CCN(Cc3ccc(Oc4nc5ccccc5s4)cc3)CC2C1` (single isomer, unassigned; (+)) [Example 142A, (+)-5-[4-(Benzothiazol-2-yloxy)-benzyl]-octahydro-pyrrolo[3,4-c]pyridine-2-carboxylic acid amide], 7.28. With `CS(=O)(=O)N1C[C@H]2C[C@@H]1CN2CCOc1ccc(Oc2nc3cc(F)ccc3s2)cc1` [Example 168, (R,R)-5-Fluoro-2-{4-[2-(5-methanesulfonyl-2,5-diaza-bicyclo[2.2.1]hept-2-yl)-ethoxy]-phenoxy}-benzothiazole], the pKi is 6.89.

`CC(=O)N1CC2CCC(C1)N2CCOc1ccc(Oc2nc3c(Cl)cccc3s2)cc1` [Example 247]: the pKi was 6.78.

Take `O=C(N1CCOCC1)N1CC2CN(Cc3ccc(Oc4nc5ccccc5s4)cc3)CC2C1` (stereo not shown) [Example 115, {5-[4-(Benzothiazol-2-yloxy)-benzyl]-hexahydro-pyrrolo[3,4-c]pyrrol-2-yl}-morpholin-4-yl-methanone]: the pKi was 8.00. In the case of `CS(=O)(=O)N1CC2CCC(C1)N2CCc1ccc(Oc2nc3cc(F)ccc3s2)cc1` [Example 210, meso-5-Fluoro-2-{4-[2-(3-methanesulfonyl-3,8-diaza-bicyclo[3.2.1]oct-8-yl)-ethyl]-phenoxy}-benzothiazole] it was 6.79; in that of `O=S(=O)(c1ccsc1)N1CC2CN(Cc3ccc(Oc4nc5ccccc5s4)cc3)CC2C1` (stereo not shown) [Example 125, 2-{4-[5-(Thiophene-3-sulfonyl)-hexahydro-pyrrolo[3,4-c]pyrrol-2-ylmethyl]-phenoxy}-benzothiazole], 5.44; in that of `O=C(c1ccsc1)N1CC2CN(Cc3ccc(Oc4nc5ccccc5s4)cc3)CC2C1` (stereo not shown) [Example 109, {5-[4-(Benzothiazol-2-yloxy)-benzyl]-hexahydro-pyrrolo[3,4-c]pyrrol-2-yl}-thiophen-3-yl-methanone], 6.87.

In the case of `Cn1ccc(C(=O)N2CC3CN(Cc4ccc(Oc5nc6ccccc6s5)cc4)CC3C2)c1` (stereo not shown) [Example 108, {5-[4-(Benzothiazol-2-yloxy)-benzyl]-hexahydro-pyrrolo[3,4-c]pyrrol-2-yl}-(1-methyl-1H-pyrrol-3-yl)-methanone], the pKi was 7.01.

As to `O=C(N1C[C@@H]2C[C@H]1CN2CCc1ccc(Oc2nc3ccccc3s2)cc1)C1(O)CC1` [Example 16], the pKi was 7.96. As for `CS(=O)(=O)N[C@@H]1C[C@H]2CC[C@@H](C1)N2CCOc1ccc(Oc2nc3ccc(F)cc3s2)cc1` [Example 284, meso-exo-N-(8-{2-[4-(6-Fluoro-benzothiazol-2-yloxy)-phenoxy]-ethyl}-8-aza-bicyclo[3.2.1]oct-3-yl)-methanesulfonamide], the pKi is 7.54.

`O=C(CO)N1C[C@@H]2C[C@H]1CN2Cc1ccc(Oc2nc3ccccc3s2)cc1F` [Example 78, (S,S)-1-{5-[4-(Benzothiazol-2-yloxy)-2-fluoro-benzyl]-2,5-diaza-bicyclo[2.2.1]hept-2-yl}-2-hydroxy-ethanone]: the pKi is 7.41. In the case of `CC(=O)N[C@@H]1C[C@H]2CC[C@@H](C1)N2Cc1ccc(Oc2nc3ccc(F)cc3s2)cc1` [Example 272, meso-exo-N-{8-[4-(6-Fluoro-benzothiazol-2-yloxy)-benzyl]-8-aza-bicyclo[3.2.1]oct-3-yl}-acetamide] it was 8.22; in that of `CC(=O)N1C[C@H]2C[C@@H]1CN2Cc1ccc(Oc2nc3c(Cl)cccc3s2)cc1` [Example 164, (R,R)-1-{5-[4-(4-Chloro-benzothiazol-2-yloxy)-benzyl]-2,5-diaza-bicyclo[2.2.1]hept-2-yl}-ethanone], 6.38. With `CS(=O)(=O)N1C[C@@H]2C[C@H]1CN2CCc1cccc(Oc2nc3ccccc3s2)c1` [Example 48, (S,S)-2-{3-[2-(5-Methanesulfonyl-2,5-diaza-bicyclo[2.2.1]hept-2-yl)-ethyl}phenoxy]benzothiazole], the pKi was 5.93. Consider `O=C(CO)N1C[C@@H]2C[C@H]1CN2CCc1ccc(Oc2nc3ccccc3s2)cc1` [Example 15, (S,S)-1-(5-{2-[4-(Benzothiazol-2-yloxy)-phenyl]-ethyl}-2,5-diaza-bicyclo[2.2.1]hept-2-yl)-2-hydroxy-ethanone], for which the negative-log Ki (pKi) was 7.74. Consider `CS(=O)(=O)N1CC2CCC(C1)N2CCOc1ccc(Oc2nc3ccc(F)cc3s2)cc1` [Example 243, meso-6-Fluoro-2-{4-[2-(3-methanesulfonyl-3,8-diaza-bicyclo[3.2.1]oct-8-yl)-ethoxy]-phenoxy}-benzothiazole], for which the pKi is 7.21.

On to `CS(=O)(=O)N1[C@@H]2CC[C@H]1C[C@@H](NCCOc1ccc(Oc3nc4c(Cl)cccc4s3)cc1)C2` [Example 194, meso-endo-{2-[4-(4-Chloro-benzothiazol-2-yloxy)-phenoxy]-ethyl}-(8-methanesulfonyl-8-aza-bicyclo[3.2.1]oct-3-yl)-amine], for which the pKi is 5.50.

Consider `CC(=O)N1C[C@@H]2C[C@H]1CN2Cc1ccc(Oc2nc3c(F)cccc3s2)cc1` [Example 207, (S,S)-1-{5-[4-(4-Fluoro-benzothiazol-2-yloxy)-benzyl]-2,5-diaza-bicyclo[2.2.1]hept-2-yl}-ethanone], for which the pKi is 8.22. As for `NC(=O)N1CC2CCC(C1)N2Cc1ccc(Oc2nc3ccccc3s2)cc1F` [Example 76, meso-8-[4-(Benzothiazol-2-yloxy)-2-fluoro-benzyl]-3,8-diaza-bicyclo[3.2.1]octane-3-carboxylic acid amide], the figure is 6.71. As for `CS(=O)(=O)N1C[C@H]2C[C@@H]1CN2Cc1ccc(Oc2nc3ccccc3s2)cc1` [Example 46, (R,R)-2-[4-(5-Methanesulfonyl-2,5-diaza-bicyclo[2.2.1]hept-2-ylmethyl)-phenoxy]-benzothiazole], the figure is 7.49.

As for `O=C(N1C[C@H]2C[C@@H]1CN2Cc1ccc(Oc2nc3ccccc3s2)cc1)C1(O)CC1` [Example 26, (R,R)-{5-[4-(Benzothiazol-2-yloxy)-benzyl]-2,5-diaza-bicyclo[2.2.1]hept-2-yl}-(1-hydroxy-cyclopropyl)-methanone], the pKi is 7.43. As for `COCC(=O)N1C[C@@H]2C[C@H]1CN2CCc1cccc(Oc2nc3ccccc3s2)c1` [Example 43], the figure is 6.35. As for `O=C(c1ccc[nH]1)N1C[C@@H]2C[C@H]1CN2CCOc1ccc(Oc2nc3ccccc3s2)cc1` [Example 65, (S,S)-(5-{2-[4-(Benzothiazol-2-yloxy)-phenoxy]-ethyl}-2,5-diaza-bicyclo[2.2.1]hept-2-yl)-(1H-pyrrol-2-yl)-methanone], the figure is 7.19; as for `CC(=O)N1C[C@@H]2C[C@H]1CN2Cc1ccc(Oc2nc3cc(F)ccc3s2)cc1` [Example 170, (S,S)-1-{5-[4-(5-Fluoro-benzothiazol-2-yloxy)-benzyl]-2,5-diaza-bicyclo[2.2.1]hept-2-yl}-ethanone], 7.05. In the case of `CS(=O)(=O)N[C@@H]1C[C@H]2CC[C@@H](C1)N2CCOc1ccc(Oc2nc3cccc(F)c3s2)cc1` [Example 251, meso-exo-N-(8-{2-[4-(7-Fluoro-benzothiazol-2-yloxy)-phenoxy]-ethyl}-8-aza-bicyclo[3.2.1]oct-3-yl)-methanesulfonamide] it was 7.48; in that of `CC(=O)N1[C@@H]2CC[C@H]1C[C@H](NCCOc1ccc(Oc3nc4ccc(Cl)cc4s3)cc1)C2` [Example 268, meso-exo-1-(3-{2-[4-(6-Chloro-benzothiazol-2-yloxy)-phenoxy]-ethylamino}-8-aza-bicyclo[3.2.1]oct-8-yl)-ethanone], 6.44. With `CC(=O)N1CC2CCC(C1)N2CCOc1ccc(Oc2nc3cc(F)ccc3s2)cc1` [Example 199, meso-1-(8-{2-[4-(5-Fluoro-benzothiazol-2-yloxy)-phenoxy]-ethyl}-3,8-diaza-bicyclo[3.2.1]oct-3-yl)-ethanone], the pKi was 7.70. As for `NCC(=O)N1C[C@H]2C[C@@H]1CN2Cc1ccc(Oc2nc3ccccc3s2)cc1` [Example 29, (R,R)-2-Amino-1-{5-[4-(benzothiazol-2-yloxy)-benzyl]-2,5-diaza-bicyclo[2.2.1]hept-2-yl}-ethanone], the figure is 7.11.
